According to US20050090504A1, “Piperidinyl and piperazinyl compounds substituted with bicyclo-heterocyclylalkyl groups useful as CCR3 receptor antagonists” (priority 2003, published 2005):

Experiments:
CCR-3 receptor = biological target: T1, CCR-3 receptor (Homo sapiens, UniProt P51677); experiment: CCR-3 Receptor Binding Assay, inhibition of 125I eotaxin binding to CCR-3 L1.2 transfectant cells; settings: CCR-3 L1.2 transfected cells, 1 hour at rt., read-out: CCR3 Binding IC50
T1 construct: expressed in transfected cells; host or cells: L1.2 (murine pre-beta lymphoma line)
T1 sequence (P51677 1-355): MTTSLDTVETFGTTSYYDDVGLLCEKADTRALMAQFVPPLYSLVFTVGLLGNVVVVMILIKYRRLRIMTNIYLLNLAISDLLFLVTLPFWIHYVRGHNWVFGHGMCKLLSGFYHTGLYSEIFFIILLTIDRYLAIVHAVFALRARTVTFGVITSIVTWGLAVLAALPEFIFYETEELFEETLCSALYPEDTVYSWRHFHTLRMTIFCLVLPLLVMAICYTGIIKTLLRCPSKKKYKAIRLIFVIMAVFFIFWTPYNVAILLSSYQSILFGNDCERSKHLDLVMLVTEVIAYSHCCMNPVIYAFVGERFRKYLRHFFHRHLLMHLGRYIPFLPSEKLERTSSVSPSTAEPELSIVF
Experimental: The CCR-3 antagonistic activity of the compounds of the invention was determined by their ability to inhibit the binding of ^125 I eotaxin to CCR-3 L1.2 transfectant cells (see Ponath, P. D. et al., J. Exp. Med., Vol. 183, 2437-2448, (1996)).
The assay was performed in Costar 96-well polypropylene round bottom plates. Test compounds were dissolved in DMSO and then diluted with binding buffer (50 mM HEPES, 1 mM CaCl2, 5 mM MgCl2, 0.5% bovine serum albumin (BSA), 0.02% sodium azide, pH 7.24) such that the final DMSO concentration was 2%. 25 μl of the test solution or only buffer with DMSO (control samples) was added to each well, followed by the addition of 25 μl of ^125I-eotaxin ([…]) (NEX314, New England Nuclear, Boston, Mass.) and 1.5×10^5 of the CCR-3 L1.2 transfected cells in 25 μl binding buffer. The final reaction volume was 75 μl.
After incubating the reaction mixture for 1 hour at rt., the reaction was terminated by filtering the reaction mixture through polyethylenimine treated Packard Unifilter GF/C filter plate (Packard, Chicago, Ill.). The filters were washed four times with ice cold wash buffer containing 10 mm HEPES and 0.5M sodium chloride (pH 7.2) and dried at 65° C. for approximately 10 minutes. 25 μl/well of Microscint-20® scintillation fluid (Packard) was added and the radioactivity retained on the filters was determined by using the Packard TopCount®. […]

| melting point | IC50 (CCR-3 receptor) | Structure (SMILES) |
| --- | --- | --- |
| 155.3 to 156.9 °C | – | Cc1ccc2oc(NC(CN3CCN(Cc4ccc(Cl)c(Cl)c4)CC3)C(C)C)nc2c1 (stereo not drawn) [Example 9, {1-[4-(3,4-Dichloro-benzyl)-piperazin-1-ylmethyl]-2-methyl-propyl}-(5-methyl-benzooxazol-2-yl)-amine] |
| – | 150 nM | CC(C)(C)[C@H](CN1CCC(Cc2ccc(Cl)c(Cl)c2)CC1)Nc1nc2ccccc2o1 [Example 18, 1-[(R)-2-(benzooxazol-2-ylamino)-3,3-dimethyl-butyl]-4-(3,4-dichloro-benzyl)-piperidinium; chloride] |
| – | 970 nM | CC(C)C(CN1CCN(Cc2ccc(Cl)c(Cl)c2)CC1)Nc1nc2ccccc2o1 (stereo not drawn) [Example 28, 1-[2-(Benzooxazol-2-ylamino)-3-methyl-butyl]-4-(3,4-dichloro-benzyl)-piperazin-1-ium; chloride] |
